Experimental data published in patent US8048879B2, “Substituted 4,5,6,7-tetrahydro-isoxazolo[4,5-c]pyridine compounds and use thereof for producing medicaments” (Gruenenthal GmbH, priority 2005, dated 2011).

biological target: T1, NA transporter (Rattus norvegicus, UniProt Q9WTR4); assay: Noradrenalin (NA) uptake inhibition, synaptosomes from rat brain (hypothalamus); format: biochemical
T1 construct: from tissue; host or cells: rat brain (hypothalamus), synaptosomes, P2 fraction
Source text: b) Method for Determining Noradrenalin and 5-HT Uptake Inhibition:
Synaptosomes from rat brain regions are freshly isolated for in vitro studies, as described in the publication “The isolation of nerve endings from brain” by E. G. Gray and V. P. Whittaker, J. Anatomy 96, pages 79-88, 1962. The corresponding literature description is hereby introduced as a reference and is deemed to be part of the disclosure.
The tissue (hypothalamus for the determination of noradrenalin uptake inhibition and medulla and pons for the determination of 5-HT uptake inhibition) is homogenised in ice-cooled 0.32 M sucrose (100 mg of tissue/1 mL) in a glass homogeniser with Teflon pestle using five complete up and down strokes at 840 revolutions/minute.
The homogenate is centrifuged at 4° C. for 10 minutes at 1000 g. After subsequent centrifugation at 17000 g for 55 minutes, the synaptosomes (P2 fraction) are obtained, which are resuspended in 0.32 M […] (0.5 mL/100 mg of original weight).
The particular uptake is measured in a 96-well microtitre plate. The volume is 250 μL and the incubation proceeds at room temperature (approx. 20-25° C.) under an O2 atmosphere.
The incubation time is 7.5 minutes for [^3H]-NA and 5 minutes for [^3H]-5-HT. The 96 samples are then filtered through a Unifilter GF/B® microtitre plate (Packard) and washed with 200 mL of incubated buffer using a “Brabdel MPXRI-96T Cell-Harvester”. The Unifilter GF/B plate is dried for 1 hour at 55° C. The plate is then sealed with a Back Seal® (Packard) and 35 μL of scintillation fluid are added per well (Ultima Gold®, Packard). After sealing with a top Seal® (Packard) and establishing an equilibrium (around 5 hours), radioactivity is determined in a “Trilux 1450 Microbeta” (Wallac).
The quantity of protein used in the above determination corresponds to the values known from the literature, as for example described in “Protein measurement with the folin phenol reagent”, Lowry et al., J. Biol. Chem., 193, 265-275, 1951.
A detailed description of the method may additionally be found in the literature, for example in M. Ch. Frink, H.-H. Hennies, W. Engelberger, M. Haurand and B. Wilffert (1996) Arzneim.-Forsch./Drug Res. 46 (III), 11, 1029-1036.
The following characteristics were determined for the NA or 5-HT transporter: […]

T1 sequence (Q9WTR4 1-597): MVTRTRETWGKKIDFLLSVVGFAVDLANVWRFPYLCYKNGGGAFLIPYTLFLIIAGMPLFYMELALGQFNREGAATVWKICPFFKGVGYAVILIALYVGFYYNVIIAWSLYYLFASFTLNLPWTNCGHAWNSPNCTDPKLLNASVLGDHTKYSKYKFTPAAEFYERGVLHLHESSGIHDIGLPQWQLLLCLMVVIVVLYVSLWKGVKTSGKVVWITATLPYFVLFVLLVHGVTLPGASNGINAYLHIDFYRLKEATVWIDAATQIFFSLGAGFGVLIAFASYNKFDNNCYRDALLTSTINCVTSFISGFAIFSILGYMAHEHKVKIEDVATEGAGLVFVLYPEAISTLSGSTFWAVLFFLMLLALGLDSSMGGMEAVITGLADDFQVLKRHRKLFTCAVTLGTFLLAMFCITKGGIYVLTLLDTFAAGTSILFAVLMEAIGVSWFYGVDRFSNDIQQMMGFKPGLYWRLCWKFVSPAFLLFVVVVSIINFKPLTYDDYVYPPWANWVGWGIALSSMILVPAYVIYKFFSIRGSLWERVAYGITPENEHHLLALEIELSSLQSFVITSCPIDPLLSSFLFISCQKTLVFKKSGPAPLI

SMILES	NA Uptake (rat), 10 μM, % inhibition	inhibition at 10 µM
COc1ccc(Cl)cc1NC(=O)N1CCc2onc(C(=O)NCC(C)C)c2C1 [Example 24, 6,7-dihydro-4H-isoxazolo[4,5-c]pyridine-3,5-dicarboxylic acid 5-[(5-chloro-2-methoxyphenyl) amide] 3-(isobutyl-amide)]	51%	
CCC(C)(CC(=O)O)CC(=O)N1CCc2onc(C(=O)Nc3ccccc3)c2C1 (stereo not drawn) [Example 29, 3-ethyl-3-methyl-5-oxo-5-(3-phenylcarbamoyl-6,7-dihydro-4H-isoxazolo[4,5-c]pyridin-5-yl)-pentanoic acid]		44%
O=C(c1noc2c1CN(S(=O)(=O)c1ccc(OC(F)(F)F)cc1)CC2)N(CCc1ccccc1)Cc1ccccc1 [Example 32, 5-(4-trifluoromethoxy-benzenesulfonyl)-4,5,6,7-tetrahydro-isoxazolo[4,5-c]pyridine-3-carboxylic acid benzyl-phenethyl amide]		82%
O=C(NCCCc1ccccc1)c1noc2c1CN(S(=O)(=O)c1ccc(F)cc1)CC2 [Example 35, 5-(4-fluoro-benzenesulfonyl)-4,5,6,7-tetrahydro-isoxazolo[4,5-c]pyridine-3-carboxylic acid (3-phenyl-propyl) amide]		73%
CC(CCc1ccccc1)NC(=O)c1noc2c1CN(S(=O)(=O)c1ccc(F)cc1)CC2 (stereo not drawn) [Example 38, 5-(4-fluoro-benzenesulfonyl)-4,5,6,7-tetrahydro-isoxazolo[4,5-c]pyridine-3-carboxylic acid (1-methyl-3-phenyl-propyl) amide]		66%
O=C(NC1CCN(Cc2ccc(C(F)(F)F)cc2)C1)c1noc2c1CN(S(=O)(=O)c1ccc(F)cc1)CC2 (stereo not drawn) [Example 39, 5-(4-fluoro-benzenesulfonyl)-4,5,6,7-tetrahydro-isoxazolo[4,5-c]pyridine-3-carboxylic acid [1-(4-trifluoromethyl-benzyl)-pyrrolidin-3-yl]amide]		61%
O=C(NC1CCCC1OCc1ccccc1)c1noc2c1CN(S(=O)(=O)c1cc(Cl)ccc1Cl)CC2 (stereo not drawn) [Example 40, 5-(2,5-dichloro-benzenesulfonyl)-4,5,6,7-tetrahydro-isoxazolo[4,5-c]pyridine-3-carboxylic acid (2-benzyloxy-cyclopentyl) amide]		71%
CCOC(=O)N1CCC(NC(=O)c2noc3c2CN(S(=O)(=O)c2ccc(F)cc2)CC3)CC1 [Example 43]	63%	
O=C(NC1CCCC1)c1noc2c1CN(C(=O)C=Cc1ccccc1)CC2 [Example 44, 5-(3-phenyl-acryloyl)-4,5,6,7-tetrahydro-isoxazolo[4,5-c]pyridine-3-carboxylic acid cyclopentyl amide]		76%
O=C(Cc1ccc(F)c(F)c1)N1CCN(C(=O)c2noc3c2CN(S(=O)(=O)c2ccc(F)cc2)CC3)CC1 [Example 48, 2-(3,4-difluoro-phenyl)-1-{4-[5-(4-fluoro-benzenesulfonyl)-4,5,6,7-tetrahydro-isoxazolo[4,5-c]pyridine-3-carbonyl]-piperazin-1-yl}-ethanone]		61%
CN(C)S(=O)(=O)N1CCc2onc(C(=O)N3CCOCC3)c2C1 [Example 49, 3-(morpholine-4-carbonyl)-6,7-dihydro-4H-isoxazolo[4,5-c]pyridine-5-sulfonic acid dimethyl amide]		73%
O=C(NCc1cccs1)c1noc2c1CN(C(=O)c1ccco1)CC2 [Example 50, 5-(furan-2-carbonyl)-4,5,6,7-tetrahydro-isoxazolo[4,5-c]pyridine-3-carboxylic acid (thiophen-2-ylmethyl) amide]		71%
CC12CCC(C(=O)N3CCc4onc(C(=O)NCCN5CCCC5)c4C3)(OC1=O)C2(C)C (stereo not drawn) [Example 51, 5-(4,7,7-trimethyl-3-oxo-2-oxa-bicyclo[2.2.1]heptane-1-carbonyl)-4,5,6,7-tetrahydro-isoxazolo[4,5-c]pyridine-3-carboxylic acid (2-pyrrolidin-1-yl-ethyl) amide]		73%
O=C(NCCN1CCOCC1)c1noc2c1CN(S(=O)(=O)c1cc(Cl)c(Cl)s1)CC2 [Example 63, 5-(4,5-dichloro-thiophene-2-sulfonyl)-4,5,6,7-tetrahydro-isoxazolo[4,5-c]pyridine-3-carboxylic acid (2-morpholin-4-yl-ethyl) amide]		77%
O=C(NC1CCCC1)c1noc2c1CN(C(=O)COc1ccc(Cl)cc1)CC2 [Example 81, 5-[2-(4-chlorophenoxy)-acetyl]-4,5,6,7-tetrahydro-isoxazolo[4,5-c]pyridine-3-carboxylic acid cyclopentyl amide]		68%
CC(CCc1ccccc1)NC(=O)c1noc2c1CN(S(=O)(=O)c1ccc(OC(F)(F)F)cc1)CC2 (stereo not drawn) [Example 96, 5-(4-trifluoromethoxy-benzenesulfonyl)-4,5,6,7-tetrahydro-isoxazolo[4,5-c]pyridine-3-carboxylic acid (1-methyl-3-phenyl-propyl) amide]		63%
O=C(NC1CCN(Cc2ccc(C(F)(F)F)cc2)C1)c1noc2c1CN(S(=O)(=O)c1ccccc1)CC2 (stereo not drawn) [Example 103, 5-benzenesulfonyl-4,5,6,7-tetrahydro-isoxazolo[4,5-c]pyridine-3-carboxylic acid [1-(4-trifluoromethyl-benzyl)-pyrrolidin-3-yl] amide]		91%
CC(CNC(=O)c1noc2c1CN(S(=O)(=O)c1cccs1)CC2)c1ccccc1 (stereo not drawn) [Example 104, 5-(thiophene-2-sulfonyl)-4,5,6,7-tetrahydro-isoxazolo[4,5-c]pyridine-3-carboxylic acid (2-phenyl-propyl) amide]		77%
O=C(NCCc1ccccc1)c1noc2c1CN(C(=O)c1ccc(F)c(Cl)c1)CC2 [Example 105, 5-(3-chloro-4-fluoro-benzoyl)-4,5,6,7-tetrahydro-isoxazolo[4,5-c]pyridine-3-carboxylic acid phenethyl amide]		62%
COc1ccc(OCCNC(=O)c2noc3c2CN(S(=O)(=O)c2ccc(C)cc2)CC3)cc1 [Example 109, 5-(toluene-4-sulfonyl)-4,5,6,7-tetrahydro-isoxazolo[4,5-c]pyridine-3-carboxylic acid [2-(4-methoxy-phenoxy)-ethyl] amide]		64%
O=C(c1noc2c1CN(S(=O)(=O)c1cc(Cl)ccc1Cl)CC2)N1CCN(c2ccccc2Cl)CC1 [Example 110, [4-(2-chlorophenyl)-piperazin-1-yl]-[5-(2,5-dichloro-benzenesulfonyl)-4,5,6,7-tetrahydro-isoxazolo[4,5-c]pyridin-3-yl]-methanone]		86%
CCOC(=O)CCNC(=O)c1noc2c1CN(C(=O)c1c(F)ccc(C)c1F)CC2 [Example 111, 3-{[5-(2,6-difluoro-3-methyl-benzoyl)-4,5,6,7-tetrahydro-isoxazolo[4,5-c]pyridine-3-carbonyl]-amino}-propionic acid ethyl ester]		66%
O=C(NCCN1CCCC1)c1noc2c1CN(S(=O)(=O)c1cccc(Cl)c1)CC2 [Example 118, 5-(3-chloro-benzenesulfonyl)-4,5,6,7-tetrahydro-isoxazolo[4,5-c]pyridine-3-carboxylic acid (2-pyrrolidin-1-yl-ethyl) amide]		63%
Cc1ccc(S(=O)(=O)N2CCc3onc(C(=O)NC(C)C(=O)OC(C)(C)C)c3C2)cc1 (stereo not drawn) [Example 120, 2-{[5-(toluene-4-sulfonyl)-4,5,6,7-tetrahydro-isoxazolo[4,5-c]pyridine-3-carbonyl]-amino}-propionic acid tert-butyl ester]		62%
CCOC(=O)CCNC(=O)c1noc2c1CN(S(=O)(=O)c1ccc(Cl)cc1)CC2 [Example 121, 3-{[5-(4-chloro-benzenesulfonyl)-4,5,6,7-tetrahydro-isoxazolo[4,5-c]pyridine-3-carbonyl]-amino}-propionic acid ethyl ester]		61%
CN(C)S(=O)(=O)N1CCc2onc(C(=O)NCCc3ccc(Cl)c(Cl)c3)c2C1 [Example 122, 5-dimethylsulfamoyl-4,5,6,7-tetrahydro-isoxazolo[4,5-c]pyridine-3-carboxylic acid [2-(3,4-dichloro-phenyl)-ethyl] amide]		63%
CCOC(=O)CCNC(=O)c1noc2c1CN(C(=O)Cc1ccc3ccccc3c1)CC2 [Example 125, 3-{[5-(2-naphthalen-2-yl-acetyl)-4,5,6,7-tetrahydro-isoxazolo[4,5-c]pyridine-3-carbonyl]-amino}-propionic acid ethyl ester]		63%
